From article PMC9907956 (Journal of inorganic biochemistry, 2022)
One block for each compound: values may come before it.

Legend:
human CYP11B1 [1] = biological target: T1, human CYP11B1 (Homo sapiens, UniProt P15538); test: Spectral ligand binding titration; details: for Amax: 0.2 μM CYP11B1, 5 cm cuvettes; for Kd: dissociation constant Kd, 1 μM CYP11B1
T1 sequence (P15538 25-503): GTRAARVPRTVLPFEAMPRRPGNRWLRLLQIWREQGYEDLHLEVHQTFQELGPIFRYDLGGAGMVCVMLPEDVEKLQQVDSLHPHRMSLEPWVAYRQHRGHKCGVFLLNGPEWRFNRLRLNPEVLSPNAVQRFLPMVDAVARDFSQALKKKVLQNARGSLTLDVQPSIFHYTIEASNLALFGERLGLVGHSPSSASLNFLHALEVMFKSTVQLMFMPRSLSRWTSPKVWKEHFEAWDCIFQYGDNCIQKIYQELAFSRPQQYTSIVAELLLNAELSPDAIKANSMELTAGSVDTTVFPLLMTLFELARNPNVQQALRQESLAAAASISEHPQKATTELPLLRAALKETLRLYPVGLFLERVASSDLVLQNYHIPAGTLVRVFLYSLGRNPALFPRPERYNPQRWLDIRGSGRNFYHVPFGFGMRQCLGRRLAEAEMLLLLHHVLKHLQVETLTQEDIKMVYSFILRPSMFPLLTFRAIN

[2] = biological target: T2, adrenodoxin-CYP11B1 fusion enzyme (Homo sapiens, UniProt P10109+P15538); test: Spectral ligand binding titration of the adrenodoxin-CYP11B1 fusion enzyme
T2 sequence (P10109+P15538 with tags, fused parts or gaps): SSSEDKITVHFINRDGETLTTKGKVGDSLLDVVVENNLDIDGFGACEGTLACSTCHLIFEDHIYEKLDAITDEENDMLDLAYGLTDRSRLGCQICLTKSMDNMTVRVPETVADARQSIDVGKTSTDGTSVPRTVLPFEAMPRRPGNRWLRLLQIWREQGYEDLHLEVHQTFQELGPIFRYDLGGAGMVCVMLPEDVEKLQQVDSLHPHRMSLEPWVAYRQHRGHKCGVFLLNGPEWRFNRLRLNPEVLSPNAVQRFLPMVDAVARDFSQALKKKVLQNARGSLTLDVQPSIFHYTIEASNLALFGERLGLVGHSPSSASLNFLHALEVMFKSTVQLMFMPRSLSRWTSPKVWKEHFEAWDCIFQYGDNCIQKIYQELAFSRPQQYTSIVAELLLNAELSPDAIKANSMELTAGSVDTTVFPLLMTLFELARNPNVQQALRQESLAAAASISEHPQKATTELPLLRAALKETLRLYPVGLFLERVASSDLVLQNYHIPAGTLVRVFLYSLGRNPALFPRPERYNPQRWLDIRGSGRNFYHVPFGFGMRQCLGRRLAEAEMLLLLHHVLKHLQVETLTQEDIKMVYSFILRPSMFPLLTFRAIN

human CYP11B1 [3] = biological target: T1, human CYP11B1; type: biochemical; details: 1:1 condition to 1:40 excess adrenodoxin
CYP11B2 [4] = test: CYP11B2 substrate binding with varying adrenodoxin; set-up: species or system human; details: over 40-fold range of excess adrenodoxin
CYP11B2 [5] = details: increasing adrenodoxin up to 40-fold; ref [8]; cited from earlier work

Amax (human CYP11B1 [1]; 1:1 CYP11B1 to adrenodoxin): 0.015
Amax (human CYP11B1 [1]; CYP11B1 alone): 0.006
SMILES: N#Cc1ccc([C@H]2CCc3cncn32)c(F)c1 [LCI699, osilodrostat]

fold increase of Amax/Kd (binding efficiency) ([2]; adrenodoxin fused): more than 11 fold
fold difference of Kd, fusion vs same 1:1 ratio of non-fused proteins ([2]; printed as higher): ~ 5 fold
fold increase in catalytic efficiency (kcat/Km) (human CYP11B1 [3]): greater than 11 fold
Kd (human CYP11B1 [1]; 10-fold excess adrenodoxin): 12.2 µM
Kd (human CYP11B1 [1]; 40-fold excess adrenodoxin): 7.3 µM
Kd (human CYP11B1 [1]; equimolar adrenodoxin (1 μM)): 20.8 µM
Kd (human CYP11B1 [1]; no adrenodoxin): 17 µM
SMILES: C[C@]12CCC(=O)C=C1CC[C@@H]1[C@@H]2CC[C@@]2(C)[C@H]1CC[C@]2(O)C(=O)CO [11-deoxycortisol]

SMILES: C[C@]12CC[C@H]3[C@@H](CCC4=CC(=O)CC[C@@]43C)[C@@H]1CC[C@@H]2C(=O)CO [11-deoxycorticosterone]
fold increase of Amax/Kd for CYP11B2 (CYP11B2 [4]): more than 3 fold
fold effect on Km for CYP11B2 (CYP11B2 [5]): 1.6 fold
